The values below come from US9334269B2, “Carboxamides as inhibitors of voltage-gated sodium channels” (AMGEN INC., priority 2010, dated 2016).

The term IC50 denotes the midpoint of a concentration-inhibition curve. A lower IC50 goes with higher potency.

In the assay the target is T1, human Nav1.7 (hNav1.7) (Homo sapiens, UniProt Q15858).
T1 construct: expressed in transfected cells
Briefly: hNav1.7 whole-cell patch-clamp electrophysiology (automated PatchXpress 7000A or manual) in stably expressing 293 cells. The format is cell-based. The settings on record: average IC50, human Nav1.7. The method, then:
Compounds were tested on human Nav1.7 (hNav1.7) expressed stably in 293 cells, which have no endogenous sodium channels. Two forms of whole-cell patch-clamp assays were used. In both, peak current through Nav1.7 was evoked by a depolarizing voltage pulse, and currents were monitored as a function of time in response to exposure to several different concentrations of drug. Automated electrophysiology uses the PatchXpress 7000A system. Up to sixteen cells at a time were voltage-clamped in parallel, and the steady-state voltage dependence of inactivation was determined experimentally for each cell. For each cell, fractional inactivation was set at 20%, and peak current through Nav1.7 as a function of time was measured in response to increasing concentrations of test compound. Manual electrophysiology refers to conventional whole-cell patch-clamping (Hamill et al., 1981). After formation of the whole-cell clamp, cells were lifted off the bottom of the dish with the patch pipette and positioned directly in front of an array of glass microperfusion tubes each with internal diameter about 250 microns, with individual compound concentrations flowing from each tube. Current as a function of time in response to increasing drug concentrations was measured with Nav1.7 fully in the resting state (holding voltage set to −140 mV) and on the same cells with the holding voltage set to produce about 20% inactivation. Compounds were not applied for a prespecified time, but for as long as required to achieve a stable level of block. For both forms of electrophysiology, offline analysis was used to correct for rundown of channel current and to determine percent inhibition as a function of drug concentration. IC50 were determined by fitting to the Hill equation.
(In general: Patch clamp records ionic current or voltage across a cell membrane.)

T1 sequence (Q15858 whole entry): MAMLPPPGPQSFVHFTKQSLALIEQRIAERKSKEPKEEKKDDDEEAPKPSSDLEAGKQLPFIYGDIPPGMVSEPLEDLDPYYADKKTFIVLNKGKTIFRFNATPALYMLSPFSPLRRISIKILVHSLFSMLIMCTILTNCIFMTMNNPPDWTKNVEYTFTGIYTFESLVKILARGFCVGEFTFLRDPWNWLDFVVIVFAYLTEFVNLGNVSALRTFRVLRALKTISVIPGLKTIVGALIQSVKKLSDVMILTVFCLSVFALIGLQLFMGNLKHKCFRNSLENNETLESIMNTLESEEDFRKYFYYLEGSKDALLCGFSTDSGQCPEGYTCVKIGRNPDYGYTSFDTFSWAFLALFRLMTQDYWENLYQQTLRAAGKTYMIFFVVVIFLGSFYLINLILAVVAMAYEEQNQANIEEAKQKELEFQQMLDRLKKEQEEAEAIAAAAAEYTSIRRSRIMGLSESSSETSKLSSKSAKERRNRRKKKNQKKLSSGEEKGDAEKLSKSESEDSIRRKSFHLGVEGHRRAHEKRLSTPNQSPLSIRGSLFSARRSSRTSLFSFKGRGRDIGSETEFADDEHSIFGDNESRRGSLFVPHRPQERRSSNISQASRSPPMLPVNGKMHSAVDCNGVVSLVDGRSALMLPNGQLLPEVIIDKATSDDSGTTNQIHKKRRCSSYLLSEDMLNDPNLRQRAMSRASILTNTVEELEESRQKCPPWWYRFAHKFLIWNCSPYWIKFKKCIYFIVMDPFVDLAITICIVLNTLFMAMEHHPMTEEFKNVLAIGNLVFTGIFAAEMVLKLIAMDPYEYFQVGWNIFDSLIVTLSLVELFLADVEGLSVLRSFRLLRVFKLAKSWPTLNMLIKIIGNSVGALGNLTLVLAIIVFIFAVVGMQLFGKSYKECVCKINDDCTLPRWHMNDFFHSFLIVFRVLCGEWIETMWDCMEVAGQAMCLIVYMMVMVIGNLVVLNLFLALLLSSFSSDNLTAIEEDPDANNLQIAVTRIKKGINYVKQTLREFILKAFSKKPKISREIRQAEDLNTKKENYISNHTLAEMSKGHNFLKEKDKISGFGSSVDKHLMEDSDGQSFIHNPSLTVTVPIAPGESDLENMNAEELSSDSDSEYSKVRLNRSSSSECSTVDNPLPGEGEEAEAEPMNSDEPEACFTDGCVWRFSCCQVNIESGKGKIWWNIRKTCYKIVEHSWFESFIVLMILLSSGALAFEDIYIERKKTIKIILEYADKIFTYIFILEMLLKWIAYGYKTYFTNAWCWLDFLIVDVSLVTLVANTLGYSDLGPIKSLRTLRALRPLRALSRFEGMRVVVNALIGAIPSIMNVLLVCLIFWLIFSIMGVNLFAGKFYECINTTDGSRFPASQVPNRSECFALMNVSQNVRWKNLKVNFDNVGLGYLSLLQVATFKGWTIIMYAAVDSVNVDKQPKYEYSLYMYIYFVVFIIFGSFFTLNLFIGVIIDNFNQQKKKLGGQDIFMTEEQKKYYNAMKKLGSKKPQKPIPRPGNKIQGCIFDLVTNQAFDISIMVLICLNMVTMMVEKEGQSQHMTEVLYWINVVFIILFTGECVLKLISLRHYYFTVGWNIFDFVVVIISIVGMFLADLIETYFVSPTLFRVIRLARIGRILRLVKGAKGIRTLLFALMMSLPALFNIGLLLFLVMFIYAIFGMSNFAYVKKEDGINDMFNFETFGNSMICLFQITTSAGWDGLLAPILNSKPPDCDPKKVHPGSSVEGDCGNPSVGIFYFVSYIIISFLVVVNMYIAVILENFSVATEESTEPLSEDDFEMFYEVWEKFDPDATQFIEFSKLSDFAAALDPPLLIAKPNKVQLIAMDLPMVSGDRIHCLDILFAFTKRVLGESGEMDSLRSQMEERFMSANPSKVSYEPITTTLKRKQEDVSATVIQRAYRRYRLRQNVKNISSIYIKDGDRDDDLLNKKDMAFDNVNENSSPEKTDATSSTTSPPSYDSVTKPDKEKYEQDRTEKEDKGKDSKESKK

Molecule `CNC(=O)c1cccc(Nc2ncnc(N3CC(Oc4ccc(C(C)(C)C)cc4)C3)n2)c1` [Example 149] showed an IC50 of 2.99 µM.

`CNC(=O)c1cccc(Nc2ncnc(N3CCC(OCc4ccc(C(F)(F)F)cc4)CC3)n2)c1` [Example 150] registered a half-maximal inhibitory concentration (IC50) of 3.03 µM.

Molecule `CNC(=O)c1cccc(Nc2ncnc(N3CCC(Cc4ccc(F)c(F)c4)CC3)n2)c1` [Example 151] returned an IC50 of 3.1 µM.

In turn, `CNC(=O)c1cccc(Nc2ncnc(NCCCOc3ccc(Cl)cc3)n2)c1` [Example 152] yielded an IC50 of 3.1 µM.

The molecule `CNC(=O)c1cccc(Nc2ncnc(N3CC(Oc4c(F)cc(Cl)cc4F)C3)n2)c1` [Example 153] came in with a half-maximal inhibitory concentration (IC50) of 3.16 µM.

Molecule `CNC(=O)c1cccc(Nc2ncnc(N3CC(Oc4cc(C)ccc4F)C3)n2)c1` [Example 155] returned a half-maximal inhibitory concentration (IC50) of 3.17 µM.

With `CNC(=O)c1cccc(Nc2ncnc(NCCCOc3ccc(OC(F)(F)F)cc3)n2)c1C` [Example 156], the 50% inhibitory concentration (IC50) is 3.34 µM.

`CNC(=O)c1cccc(Nc2ncnc(N3CCN(c4ccc(Cl)cc4)CC3)n2)c1` [Example 157] displayed an IC50 of 3.36 µM.

As for `CNC(=O)c1cccc(Nc2ncnc(N3CC(COc4ccc(Cl)c(Cl)c4)C3)n2)c1` [Example 158], half-maximal inhibition (IC50) was put at 3.5 µM.

`CNC(=O)c1cccc(Nc2ncnc(N3CCN(c4ccc(OC)cc4)CC3)n2)c1` [Example 159] returned a 50% inhibitory concentration (IC50) of 3.5 µM.

In the case of `CNC(=O)c1ccc(C)c(Nc2ncnc(N3CC(Oc4ccc(F)cc4)C3)n2)c1` [Example 160], it took 3.65 µM to reach half-maximal inhibition (IC50).

As for `CNC(=O)c1c(F)ccc(Nc2ncnc(N3CC(COc4ccc(Cl)cc4)C3)n2)c1F` [Example 161], half-maximal inhibition (IC50) required 3.67 µM.

On to `CNC(=O)c1cc(Nc2ncnc(N3CC(Oc4ccc(Cl)cc4)C3)n2)ccc1Cl` [Example 162], for which the IC50 is 3.69 µM.

Molecule `CNC(=O)c1cccc(Nc2ncnc(N3CC(COc4ccc(F)cc4)C3)n2)c1` [Example 163] returned a concentration for half-maximal inhibition (IC50) of 3.71 µM.

For the molecule `CNC(=O)c1cc(Nc2ncnc(NCCCOc3cccc(C(F)(F)F)c3)n2)ccc1Cl` [Example 164], the 50% inhibitory concentration (IC50) is 3.75 µM.

Molecule `CNC(=O)c1ccc(F)c(Nc2ncnc(N3CC(Oc4ccc(F)cc4)C3)n2)c1` [Example 165] yielded a 50% inhibitory concentration (IC50) of 3.82 µM.

For `CNC(=O)c1cccc(Nc2ncnc(N3CCC(Oc4ccc(Cl)c(OC(F)(F)F)c4)CC3)n2)c1` [Example 166], half-maximal inhibition (IC50) was put at 4.05 µM.

In the case of `CNC(=O)c1cccc(Nc2ncnc(N3CCC(n4cc(-c5ccc(Cl)cc5)cn4)CC3)n2)c1` [Example 167], the half-inhibitory concentration (IC50) amounted to 4.16 µM.

Molecule `CNC(=O)c1cccc(Nc2ncnc(N3CCC(c4nc(-c5ccccc5)c(C)s4)CC3)n2)c1` [Example 168] gave a half-inhibitory concentration (IC50) of 4.22 µM.

In the case of `CNC(=O)c1cccc(Nc2ncnc(NCCCOc3ccc(C(F)(F)F)cc3)n2)c1` [Example 169], the midpoint of inhibition, the IC50, lay at 4.25 µM.

Consider `CNC(=O)c1cccc(Nc2ncnc(N3CCC(c4ccc(C#N)cc4)CC3)n2)c1` [Example 170], for which the IC50 came to 4.3 µM.

`CNC(=O)c1cccc(Nc2ncnc(N3CC(COc4cccc(OC(F)(F)F)c4)C3)n2)c1` [Example 171] returned an IC50 of 4.33 µM.

As to `CNC(=O)c1cccc(Nc2ncnc(N3CCN(c4ccccc4OC(F)(F)F)CC3)n2)c1` [Example 172], the IC50 is 4.45 µM.

`CNC(=O)c1cc(F)cc(Nc2ncnc(N3CC(COc4ccc(Cl)cc4)C3)n2)c1` [Example 173] came in with an IC50 of 4.56 µM.

In turn, `O=C(NCC(F)(F)F)c1cccc(Nc2ncnc(N3CC(Oc4ccc(F)cc4)C3)n2)c1` [Example 174] had a concentration for half-maximal inhibition (IC50) of 4.62 µM.

`CNC(=O)c1cccc(Nc2ncnc(N3CCC(Oc4ccccn4)CC3)n2)c1` [Example 175] displayed an IC50 of 4.63 µM.

The molecule `CNC(=O)c1cccc(Nc2ncnc(N3CCc4cc(F)ccc4C3)n2)c1` [Example 176] yielded an IC50 of 4.67 µM.

Molecule `CNC(=O)c1cccc(Nc2ncnc(N3CC(Oc4cc(F)ccc4F)C3)n2)c1` [Example 177] registered an IC50 of 4.72 µM.

`CNC(=O)c1cccc(Nc2ncnc(N3CCN(c4ccccc4C(F)(F)F)CC3)n2)c1` [Example 178] showed an IC50 of 4.78 µM.

`CNC(=O)c1cccc(Nc2cc(N3CC(Oc4ccc(F)cc4)C3)ccn2)c1` [Example 179] gave an IC50 of 4.84 µM.

Take `CNC(=O)c1cccc(Nc2ncnc(N3CCN(Cc4ccc(OC(F)(F)F)cc4)CC3)n2)c1` [Example 180]: the IC50 was determined as 4.85 µM.

Regarding `CNC(=O)c1cccc(Nc2ncnc(N3CC(Oc4ccccc4OC(F)(F)F)C3)n2)c1` [Example 181], the IC50 came to 4.93 µM.

With `CNC(=O)c1cccc(Nc2ncnc(N3CC(C)(Oc4ccc(C)cc4)C3)n2)c1` [Example 182], the IC50 was 5.1 µM.

In turn, `CNC(=O)c1c(F)ccc(Nc2ncnc(N3CC(Oc4ccc(Cl)cc4)C3)n2)c1F` [Example 183] showed an IC50 of 5.19 µM.

In turn, `CNC(=O)c1cccc(Nc2ncnc(N3CC(c4ccc(Cl)cc4)C3)n2)c1` [Example 184] had a half-maximal inhibitory concentration (IC50) of 5.23 µM.

`CNC(=O)c1cccc(Nc2ncnc(N3CCc4cc(C)ccc4C3)n2)c1` [Example 185]: the IC50 is 5.28 µM.

Molecule `CNC(=O)c1cccc(Nc2ncnc(N3CC(Oc4cc(F)cc(F)c4)C3)n2)c1` [Example 187] registered a half-maximal inhibitory concentration (IC50) of 5.43 µM.

`CNC(=O)c1cccc(Nc2ncnc(N3CC(COc4cccc(C(F)(F)F)c4)C3)n2)c1` [Example 188] showed an IC50 of 5.44 µM.

On to `CNC(=O)c1cccc(Nc2ncnc(N3CC(COCc4ccc(C(F)(F)F)cc4)C3)n2)c1` [Example 189], for which 5.56 µM corresponded to half-maximal inhibition (IC50).

Regarding `CNC(=O)c1cccc(Nc2ncnc(N3CCC(n4cc(-c5ccccc5Cl)cn4)CC3)n2)c1` [Example 190], the midpoint of inhibition, the IC50, lay at 5.58 µM.

Take `CNC(=O)c1cccc(Nc2ncnc(N3CCN(Cc4ccccc4OC(F)(F)F)CC3)n2)c1` [Example 191]: the IC50 stood at 5.6 µM.

Take `CNC(=O)c1cccc(Nc2ncnc(N3CC(Oc4ccccc4F)C3)n2)c1` [Example 192]: the IC50 was 5.6 µM.

The molecule `CNC(=O)c1cccc(Nc2ncnc(N3CCC(Oc4ccc(F)c(OC(F)(F)F)c4)CC3)n2)c1` [Example 193] showed an IC50 of 5.79 µM.

Take `CNC(=O)c1cccc(Nc2ncnc(N3CC(Oc4ccc(C(F)(F)F)cc4Cl)C3)n2)c1` [Example 194]: 5.97 µM corresponded to half-maximal inhibition (IC50).

`CNC(=O)c1cccc(Nc2ncnc(N3CCN(c4ccc(C#N)cc4)CC3)n2)c1` [Example 195] had an IC50 of 6.03 µM.

As to `CNC(=O)c1cccc(Nc2ncnc(N3CCC(Cc4ccc(F)cc4)CC3)n2)c1` [Example 196], half-maximal inhibition (IC50) was put at 6.4 µM.

Take `CNC(=O)c1cccc(Nc2ccnc(N3CC(COc4ccc(Cl)cc4)C3)n2)c1` [Example 197]: the IC50 was determined as 6.8 µM.

In turn, `CNC(=O)c1cccc(Nc2ncnc(N3CCN(c4ccc(F)cc4)CC3)n2)c1` [Example 198] displayed an IC50 of 6.83 µM.

`CNC(=O)c1cccc(Nc2ncnc(N3CC(Oc4cccc(-c5ccccc5)c4)C3)n2)c1` [Example 199] came in with a concentration for half-maximal inhibition (IC50) of 7.02 µM.

The molecule `NC(=O)c1cccc(Nc2ncnc(N3CCC(OCc4ccc(OC(F)(F)F)cc4)CC3)n2)c1` [Example 200] gave an IC50 of 7.03 µM.

With `CNC(=O)c1cccc(Nc2ncnc(N3CC(COc4cccc(Cl)c4)C3)n2)c1` [Example 201], the IC50 was determined as 7.03 µM.

`CNC(=O)c1cccc(Nc2ncnc(N3CCN(c4ccc(OC(F)(F)F)cc4)CC3)n2)c1C` [Example 202] displayed a 50% inhibitory concentration (IC50) of 7.12 µM.

For `CNC(=O)c1cccc(Nc2ncnc(N3CCCN(Cc4ccccc4)CC3)n2)c1` [Example 203], the IC50 worked out at 7.42 µM.

Regarding `CNC(=O)c1cccc(Nc2ncnc(N3CC(Oc4ccccc4OC)C3)n2)c1` [Example 204], the IC50 was found to be 7.42 µM.

`O=C(NC1CC1)c1cccc(Nc2ncnc(N3CC(Oc4ccc(F)cc4)C3)n2)c1` [Example 205] returned an IC50 of 7.42 µM.

Take `CNC(=O)c1cccc(Nc2ncnc(N3CCC(OCc4ccccc4)CC3)n2)c1` [Example 206]: the IC50 stood at 7.93 µM.

As for `CNC(=O)c1cccc(Nc2ncnc(N3CC(Oc4ccc(CC#N)cc4)C3)n2)c1` [Example 207], the half-inhibitory concentration (IC50) was 7.98 µM.

In turn, `CNC(=O)c1cccc(Nc2ncnc(N3CC(COc4ccc(Cl)c(C(F)(F)F)c4)C3)n2)c1` [Example 208] registered an IC50 of 8.11 µM.

`CNC(=O)c1cccc(Nc2ncnc(N3CCC(Oc4ccccc4OC(F)(F)F)CC3)n2)c1` [Example 209]: the half-inhibitory concentration (IC50) came to 8.15 µM.

`CNC(=O)c1cccc(Nc2ncnc(N3CC(Oc4ccc(C#N)cc4)C3)n2)c1` [Example 210] registered a half-maximal inhibitory concentration (IC50) of 8.24 µM.

Take `CNC(=O)c1cccc(Nc2ncnc(N3CCC3COc3ccc(Cl)cc3)n2)c1` (stereo not drawn) [Example 211]: half-maximal inhibition (IC50) required 8.3 µM.

Consider `CNC(=O)c1cccc(Nc2ncnc(N3CCCC(Oc4ccccc4Cl)C3)n2)c1` (stereo not drawn) [Example 212], for which the concentration for half-maximal inhibition (IC50) came to 8.31 µM.

Molecule `CC(C)(C)NC(=O)c1cccc(Nc2ncnc(N3CC(Oc4ccc(F)cc4)C3)n2)c1` [Example 213] came in with an IC50 of 8.39 µM.

For the molecule `CNC(=O)c1cccc(Nc2ncnc(N3CC(Oc4ccc(OCc5ccccc5)cc4)C3)n2)c1` [Example 214], half-maximal inhibition (IC50) required 8.47 µM.

Consider `CNC(=O)c1cccc(Nc2ncnc(N3CCC(c4ccc(C#N)c(C(F)(F)F)c4)CC3)n2)c1` [Example 215], for which inhibition was half-maximal at 8.59 µM (IC50).

The molecule `CNC(=O)c1cccc(Nc2ncnc(N3CCc4cc(C(F)(F)F)ccc4C3)n2)c1` [Example 216] yielded an IC50 of 8.6 µM.
